# Measurements published in patent US11325892B2, “Compounds and methods for treating cancer” (Mayo Foundation for Medical Education and Research, priority 2014, dated 2022).
# Assays:
# Format in all cases: cell-based
# [1] = system: PARP cleavage, CHOP, s-XBP1, HERPUD1 in ATC cells; test: PARP cleavage and UPR protein expression in ATC cells; conditions: EC50 dose for 72H; all three ATC cells; abrogated with OA
# Method: Protein extraction and western blot analysis was performed as previously described (Copland J A, Marlow L A, Kurakata S, et al. Novel high-affinity PPARgamma agonist alone and in combination with paclitaxel inhibits human anaplastic thyroid carcinoma tumor growth via p21WAF1/CIP1. Oncogene. Apr 13 2006; 25(16):2304-2317). Primary antibodies included SCD1 (Sigma-Aldrich, #HPA012107), BiP (Cell Signaling, #3183), CHOP (Cell Signaling, #2895), sXBP1(Santa Cruz Biotechnology, #sc-7160), PARP(Cell Signaling, #9542), and β-actin (Sigma-Aldrich, #A5441).
# Cells were plated in 4-chamber slides (Thermo Scientific) prior to drug treatment. […]
# Exogenous application of MUFAs, such as oleic or palmitoleic acid, can rescue the proliferative defects generated by SCD1 inhibition as these are the primary products of SCD1 enzymatic activity (Roongta U V, Pabalan J G, Wang X, Ryseck R P, Fargnoli J, Henley B J, Yang W P, Zhu J, Madireddi M T, Lawrence R M, Wong T W, Rupnow B A. Cancer cell dependence on unsaturated fatty acids implicates stearoyl-CoA desaturase as a target for cancer therapy. Mol Cancer Res. 2011; 9(11):1551-61). […] Transcriptional upregulation of UPR markers including GADD45a (Growth arrest and DNA damage inducible transcript 1, DDIT1), DDIT3 (DNA damage inducible transcript 3, CHOP), and HERPUD1 homocysteine-inducible, ER stress inducible, ubiquitin-like-1) were evaluated by QPCR.
# [2] = system: GADD45a, DDIT3, HERPUD1 transcripts in THJ29T, THJ16T, and KTC2; test: QPCR of UPR markers in ATC cells; conditions: 10 μM, 24 hours; all cell lines; OA restored expression to control levels
# Excerpt: RNA isolation, preparation of cDNA, and QPCR performed as previously described (Tun H W, Marlow L A, von Roemeling C A, Cooper S J, Kreinest P, Wu K, Luxon B A, Sinha M, Anastasiadis P Z, Copland J A. Pathway signature and cellular differentiation in clear cell renal cell carcinoma. PLoS One. 2010; 5(5):e10696). TaqMan®CDFAM™ dye-labeled probes: GAPDH(Hs99999905_ml), POLR2A(Hs00172187_ml), SCD/(Hs01682761_HSPA5(Hs99999174_ml), GADD45A(Hs00169255_ml), DD/T3(Hs01090850_ml), and HERPUD/(Hs01124269_ml). Fold-change comparisons between normal vs. tumor, and DMSO vs. drug treated samples calculated using the […] method (Schmittgen T D, Livak K J. Analyzing real-time PCR data by the comparative C(T) method. Nat Protoc. 2008; 3 (6): 1101-8).
# Exogenous application of MUFAs, such as oleic or palmitoleic acid, can rescue the proliferative defects generated by SCD1 inhibition as these are the primary products of SCD1 enzymatic activity (Roongta U V, Pabalan J G, Wang X, Ryseck R P, Fargnoli J, Henley B J, Yang W P, Zhu J, Madireddi M T, Lawrence R M, Wong T W, Rupnow B A. Cancer cell dependence on unsaturated fatty acids implicates stearoyl-CoA desaturase as a target for cancer therapy. Mol Cancer Res. 2011; 9(11):1551-61). THJ29T, THJ16T and KTC2 cells were treated with the EC50 dose of A939572 or MF-438 for 72H with or without 5 μM of oleic acid (OA). […]
# [3] = system: HK2, a transformed renal epithelial cell line; test: High-throughput proliferative screen, non-cancerous cells
# Method: Cells were seeded at 5,000 cells/well in clear-bottom 96-well plates in triplicate in Maintenance Media. Drug treatment was applied at a concentration of 1:1000 in reduced serum (3%) Maintenance Media. After 72 hours, cells were washed with PBS, and stored at −80° C. prior to analysis using CyQuant® Proliferation Analysis Kit (Invitrogen) as per manufacturers' protocol for relative fluorescence units. Alternatively, cells were plated 2×10^5/well in 12-well plates (Midwest Scientific) in triplicate prior to drug treatment. After 120 hour treatment, cell number was established using a Coulter Particle Counter (Beckman). Or, cells were plated (0.5 or 1×10^5/well) in 24-well plates (Midwest Scientific), 3×. After 72 hour treatment, cell number established using Coulter Particle Counter (Beckman). Oleic acid-albumin (Sigma Aldrich) was added to media at 5 μM, and was applied adjuvant to drug treatment. Drug stocks were prepared in DMSO (Sigma) at 1000×. EC50 dosing per cell line was calculated using CalcuSyn® analytical software.
# In order to identify potential SCD1 inhibitors, a high-throughput proliferative-based screening method was used, with four ccRCC cell lines including A498, ACHN, Caki1, and Caki2. The SCD1 inhibitor MF-438 was included as a positive control. Known compounds ChemBL375265 (Liu G, Lynch J K, Freeman J, et al. Discovery of potent, selective, orally bioavailable stearoyl-CoA desaturase 1 inhibitors. Journal of medicinal chemistry. Jun. 28, 2007; 50(13): 3086-3100) (SetA.100) and SAR707 (Voss M D, Zoller G, Matter H, et al. Discovery and pharmacological characterization of SAR707 as novel and selective small molecule inhibitor of stearoyl-CoA desaturase (SCD1). European journal of pharmacology. May 5, 2013; 707(1-3): 140-146) (TC03.100) were included as single-blinded positive controls, and are indicated with an asterisk (*). […]
smiles,measurement,setting,value
CNC(=O)c1cccc(NC(=O)N2CCC(Oc3ccccc3Cl)CC2)c1 [A939572],apoptosis as evaluated by PARP cleavage,[1],induced apoptosis
same,"transcription of UPR markers GADD45a, DDIT3, HERPUD1",[2],transcriptionally upregulated
"Cc1nnc(-c2ccc(N3CCC(Oc4ccccc4C(F)(F)F)CC3)nn2)s1 [MF-438, 2-methyl-5-(6-(4-(2-(trifluoromethyl)phenoxy)piperidin-1-yl)pyridazin-3-yl)-1,3,4-thiadiazole]",reduction in cell proliferation,[3],approximately 20%
